Patent US20260055102A1 (Redx Pharma Limited, priority 2022, published 2026)

Experiments:
[1] = target: Recombinant human DDR1 (aa440-876 containing a GST tag) (Homo sapiens (Human), UniProt Q08345); experiment: LanthaScreen Eu Kinase Binding Assay DDR1; conditions: Kinase Tracer 178 5 nM, at least two independent replicates; for IC50: read-out: DDR1 pIC50 (converted)
Protocol: (§1) DDR1 and DDR2 Biochemical Assay Method The capacity of compounds to bind to DDR1 and DDR2 was quantified using a LanthaScreen Eu Kinase Binding Assay. Recombinant human DDR1 (2.5 nM; aa440-876 containing a GST tag) and DDR2 (1.75 nM; aa427-855 containing a GST tag) were diluted in assay buffer (50 mM HEPES pH7.3, 10 mM MgCl2, 1 mM EGTA and 0.01% Tween) with various concentrations of compound in a 384-well plate and a volume of 5 uL. After a 30-minute incubation at room temperature, 2.5 uL of Eu-anti GST antibody (diluted to 1 nM in assay buffer) plus Kinase Tracer 178 (diluted in assay buffer to 5 nM for DDR1 and 10 nM for DDR2) were added to the plate. Following 60-minute incubation at room temperature, time-resolved fluorescence was measured on a BMG Labtech PHERAstar plate reader. DMSO (1%) and reference compound (1 μM) were used to generate the Max and Min assay signals, respectively. Data was analysed using a four-parameter logistic model to calculate IC50 values, with at least two independent replicates were performed for each compound.

[2] = target: Recombinant human DDR2 (aa427-855 containing a GST tag) (Homo sapiens (Human), UniProt Q16832); experiment: LanthaScreen Eu Kinase Binding Assay DDR2; conditions: Kinase Tracer 178 10 nM, at least two independent replicates; for IC50: read-out: DDR2 pIC50 (converted)
Chain of Recombinant human DDR2 (aa427-855 containing a GST tag) (Q16832 427-855): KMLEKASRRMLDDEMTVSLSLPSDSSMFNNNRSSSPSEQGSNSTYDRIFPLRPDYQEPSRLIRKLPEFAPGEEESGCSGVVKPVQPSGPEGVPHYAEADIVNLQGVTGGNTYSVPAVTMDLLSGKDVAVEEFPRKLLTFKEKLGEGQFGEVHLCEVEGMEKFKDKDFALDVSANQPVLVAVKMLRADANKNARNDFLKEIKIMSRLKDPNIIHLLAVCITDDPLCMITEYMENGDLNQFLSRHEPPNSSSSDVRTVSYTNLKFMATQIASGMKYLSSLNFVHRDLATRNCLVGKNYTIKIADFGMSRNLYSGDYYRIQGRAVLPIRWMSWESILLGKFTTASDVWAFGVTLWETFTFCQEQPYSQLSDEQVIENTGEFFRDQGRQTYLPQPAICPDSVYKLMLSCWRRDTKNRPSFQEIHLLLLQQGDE
Protocol: as §1

Chain of Recombinant human DDR1 (aa440-876 containing a GST tag) (Q08345 other isoform, or with tags, fused parts or gaps): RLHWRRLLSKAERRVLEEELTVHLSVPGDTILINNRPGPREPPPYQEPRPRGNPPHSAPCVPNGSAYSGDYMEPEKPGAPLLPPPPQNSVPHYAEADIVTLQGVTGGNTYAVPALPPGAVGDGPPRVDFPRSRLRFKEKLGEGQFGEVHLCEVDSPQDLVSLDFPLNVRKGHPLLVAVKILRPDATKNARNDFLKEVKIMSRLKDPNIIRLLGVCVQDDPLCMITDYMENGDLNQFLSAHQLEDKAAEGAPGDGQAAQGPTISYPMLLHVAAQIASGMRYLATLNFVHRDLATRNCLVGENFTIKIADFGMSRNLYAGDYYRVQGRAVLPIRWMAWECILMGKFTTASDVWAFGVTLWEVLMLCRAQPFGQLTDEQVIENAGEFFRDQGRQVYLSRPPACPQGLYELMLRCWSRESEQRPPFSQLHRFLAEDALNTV

**Q.** For `CN1CCN(C(=O)Cn2c(=O)n(-c3ccc(-c4cncc5c4cnn5C)cc3)c3ccccc32)CC1` [Example 21, 1-[2-(4-methylpiperazin-1-yl)-2-oxoethyl]-3-[4-(1-methylpyrazolo[3,4-c]pyridin-4-yl)phenyl]benzimidazol-2-one], which “DDR1 pIC50” value [1] is on record?
**A.** D (pIC50≤6)

**Q.** What about the “DDR2 pIC50” value [2] of the same compound?
**A.** D (pIC50≤6)

**Q.** With `Cn1ncc2c(-c3ccc(-n4c(=O)n(CC(=O)N5CCOCC5)c5ccccc54)cc3)cncc21` [Example 22, 1-[4-(1-methylpyrazolo[3,4-c]pyridin-4-yl)phenyl]-3-(2-morpholino-2-oxoethyl)benzimidazol-2-one] as the compound, how does the “DDR1 pIC50” value [1] read?
**A.** D (pIC50≤6)

**Q.** What about the “DDR2 pIC50” value [2] of the same compound?
**A.** D (pIC50≤6)

**Q.** With `Cn1ncc2c(-c3ccc(-n4c(=O)n(CC(=O)N5CCCC(C(F)(F)F)C5)c5ccccc54)cc3)cncc21` (stereo not shown) [Example 23, 1-[4-(1-methylpyrazolo[3,4-c]pyridin-4-yl)phenyl]-3-[2-oxo-2-[3-(trifluoromethyl)-1-piperidyl]ethyl]benzimidazol-2-one] as the compound, how does the “DDR1 pIC50” value [1] read?
**A.** A (pIC50>8)

**Q.** And the “DDR2 pIC50” value [2]?
**A.** D (pIC50≤6)

**Q.** What does the source list for `Cn1ncc2c(-c3ccc(-n4c(=O)n(CC(=O)N5CCOC(C(F)(F)F)C5)c5ccccc54)cc3)cncc21` (stereo not shown) [Example 24, 1-[4-(1-methylpyrazolo[3,4-c]pyridin-4-yl)phenyl]-3-[2-oxo-2-[2-(trifluoromethyl)morpholin-4-yl]ethyl]benzimidazol-2-one]?
**A.** DDR1 pIC50 [1]: A (pIC50>8); DDR2 pIC50 [2]: D (pIC50≤6)

**Q.** What does the source list for `Cn1ncc2c(-c3ccc(-n4c(=O)n(CC(=O)N5CCC[C@H]5C(F)F)c5ccccc54)cc3)cncc21` [Example 25, 1-[2-[(2S)-2-(difluoromethyl)pyrrolidin-1-yl]-2-oxo-ethyl]-3-[4-(1-methylpyrazolo[3,4-c]pyridin-4-yl)phenyl]benzimidazol-2-one]?
**A.** DDR1 pIC50 [1]: A (pIC50>8); IC50 [2]: 10 to 100 nM

**Q.** Which IC50 [1] does the source give for `C[C@@H]1CCCN1C(=O)Cn1c(=O)n(-c2ccc(-c3cncc4c3cnn4C)cc2)c2ccccc21` [Example 27, 1-[4-(1-methylpyrazolo[3,4-c]pyridin-4-yl)phenyl]-3-[2-[(2R)-2-methylpyrrolidin-1-yl]-2-oxoethyl]benzimidazol-2-one] here?
**A.** 10 to 100 nM

**Q.** And the “DDR2 pIC50” value [2]?
**A.** D (pIC50≤6)

**Q.** `CC(CC(F)(F)F)NC(=O)Cn1c(=O)n(-c2ccc(-c3cncc4c3cnn4C)cc2)c2ccccc21` (stereo not shown) [Example 28, 2-[3-[4-(1-methylpyrazolo[3,4-c]pyridin-4-yl)phenyl]-2-oxo-benzimidazol-1-yl]-N-(3,3,3-trifluoro-1-methyl-propyl)acetamide] was tested. Which “DDR1 pIC50” value [1] did it give?
**A.** A (pIC50>8)

**Q.** What about the “DDR2 pIC50” value [2] of the same compound?
**A.** D (pIC50≤6)

**Q.** Which “DDR1 pIC50” value [1] does the source give for `Cn1ncc2c(-c3ccc(-n4c(=O)n(CC(=O)N5CCC[C@@H](C(F)(F)F)C5)c5ccccc54)cc3)cncc21` [Example 29, 1-[4-(1-methylpyrazolo[3,4-c]pyridin-4-yl)phenyl]-3-[2-oxo-2-[(3R)-3-(trifluoromethyl)-1-piperidyl]ethyl]benzimidazol-2-one] here?
**A.** A (pIC50>8)

**Q.** And the “DDR2 pIC50” value [2]?
**A.** D (pIC50≤6)

**Q.** Which results are given for `Cn1ncc2c(-c3ccc(-n4c(=O)n(CC(=O)N5CCCC[C@@H]5C(F)(F)F)c5ccccc54)cc3)cncc21` [Example 30, 1-[4-(1-methylpyrazolo[3,4-c]pyridin-4-yl)phenyl]-3-[2-oxo-2-[(2R)-2-(trifluoromethyl)-1-piperidyl]ethyl]benzimidazol-2-one]?
**A.** IC50 [1]: 100 to 1000 nM; DDR2 pIC50 [2]: D (pIC50≤6)

**Q.** For `Cn1ncc2c(-c3ccc(-n4c(=O)n(CC(=O)N5CCC[C@H](C(F)(F)F)C5)c5ccccc54)cc3)cncc21` [Example 31, 1-[4-(1-methylpyrazolo[3,4-c]pyridin-4-yl)phenyl]-3-[2-oxo-2-[(3S)-3-(trifluoromethyl)-1-piperidyl]ethyl]benzimidazol-2-one], which “DDR1 pIC50” value [1] is on record?
**A.** A (pIC50>8)

**Q.** And the “DDR2 pIC50” value [2]?
**A.** D (pIC50≤6)

**Q.** Which “DDR1 pIC50” value [1] does the source give for `Cn1ncc2c(-c3ccc(-n4c(=O)n(CC(=O)N5CCCC[C@H]5C(F)(F)F)c5ccccc54)cc3)cncc21` [Example 32, 1-[4-(1-methylpyrazolo[3,4-c]pyridin-4-yl)phenyl]-3-[2-oxo-2-[(2S)-2-(trifluoromethyl)-1-piperidyl]ethyl]benzimidazol-2-one] here?
**A.** A (pIC50>8)

**Q.** And the IC50 [2]?
**A.** 100 to 1000 nM

**Q.** How did the IC50 [1] turn out when `CC(CNC(=O)Cn1c(=O)n(-c2ccc(-c3cncc4c3cnn4C)cc2)c2ccccc21)C(F)(F)F` (stereo not shown) [Example 33, 2-[3-[4-(1-methylpyrazolo[3,4-c]pyridin-4-yl)phenyl]-2-oxobenzimidazol-1-yl]-N-(3,3,3-trifluoro-2-methyl-propyl)acetamide] was run?
**A.** 10 to 100 nM

**Q.** What about the “DDR2 pIC50” value [2] of the same compound?
**A.** D (pIC50≤6)

**Q.** What does the source list for `Cn1ncc2c(-c3ccc(-n4c(=O)n(CC(=O)N5CC(C(F)(F)F)C5)c5ccccc54)cc3)cncc21` [Example 34, 1-[4-(1-methylpyrazolo[3,4-c]pyridin-4-yl)phenyl]-3-[2-oxo-2-[3-(trifluoromethyl)azetidin-1-yl]ethyl]benzimidazol-2-one]?
**A.** IC50 [1]: 100 to 1000 nM; DDR2 pIC50 [2]: D (pIC50≤6)

**Q.** With `Cn1ncc2c(-c3ccc(-n4c(=O)n(CC(=O)N5CC(F)(F)C5)c5ccccc54)cc3)cncc21` [Example 35, 1-[2-(3,3-difluoroazetidin-1-yl)-2-oxoethyl]-3-[4-(1-methylpyrazolo[3,4-c]pyridin-4-yl)phenyl]benzimidazol-2-one] as the compound, how does the “DDR1 pIC50” value [1] read?
**A.** D (pIC50≤6)

**Q.** And the “DDR2 pIC50” value [2]?
**A.** D (pIC50≤6)

**Q.** Which results are given for `Cn1ncc2c(-c3ccc(-n4c(=O)n(CC(=O)NC5CC5(F)F)c5ccccc54)cc3)cncc21` (stereo not shown) [Example 36, N-(2,2-difluorocyclopropyl)-2-[3-[4-(1-methylpyrazolo[3,4-c]pyridin-4-yl)phenyl]-2-oxobenzimidazol-1-yl]acetamide]?
**A.** IC50 [1]: 100 to 1000 nM; DDR2 pIC50 [2]: D (pIC50≤6)

**Q.** What does the source list for `Cn1ncc2c(-c3ccc(-n4c(=O)n(CC(=O)N5CCO[C@@H](C(F)(F)F)C5)c5ccccc54)cc3)cncc21` [Example 37, 1-[4-(1-methylpyrazolo[3,4-c]pyridin-4-yl)phenyl]-3-[2-oxo-2-[(2R)-2-(trifluoromethyl)morpholin-4-yl]ethyl]benzimidazol-2-one]?
**A.** IC50 [1]: 10 to 100 nM; DDR2 pIC50 [2]: D (pIC50≤6)

**Q.** Which results are given for `Cn1ncc2c(-c3ccc(-n4c(=O)n(CC(=O)N5CCO[C@H](C(F)(F)F)C5)c5ccccc54)cc3)cncc21` [Example 38, 1-[4-(1-methylpyrazolo[3,4-c]pyridin-4-yl)phenyl]-3-[2-oxo-2-[(2S)-2-(trifluoromethyl)morpholin-4-yl]ethyl]benzimidazol-2-one]?
**A.** IC50 [1]: 10 to 100 nM; DDR2 pIC50 [2]: D (pIC50≤6)

**Q.** How did the “DDR1 pIC50” value [1] turn out when `Cc1cccc2c1n(-c1ccc(-c3cncc4c3cnn4C)cc1)c(=O)n2CC(=O)N1CCOCC1C(F)(F)F` (stereo not shown) [Example 39, 4-methyl-3-[4-(1-methylpyrazolo[3,4-c]pyridin-4-yl)phenyl]-1-[2-oxo-2-[3-(trifluoromethyl)morpholin-4-yl]ethyl]benzimidazol-2-one] was run?
**A.** A (pIC50>8)

**Q.** And the IC50 [2]?
**A.** 10 to 100 nM

**Q.** Which IC50 [1] does the source give for `Cc1cc(-c2cncc3c2cnn3C)ccc1-n1c(=O)n(CC(=O)N2CCOC(C(F)(F)F)C2)c2ccccc21` (stereo not shown) [Example 40, 1-[2-methyl-4-(1-methylpyrazolo[3,4-c]pyridin-4-yl)phenyl]-3-[2-oxo-2-[2-(trifluoromethyl)morpholin-4-yl]ethyl]benzimidazol-2-one] here?
**A.** 10 to 100 nM

**Q.** What about the “DDR2 pIC50” value [2] of the same compound?
**A.** D (pIC50≤6)

**Q.** With `O=C(Cn1c(=O)n(-c2ccc(-c3cncc4[nH]ncc34)cc2)c2ccccc21)NCC(F)(F)F` [Example 41, 2-[2-oxo-3-[4-(1H-pyrazolo[3,4-c]pyridin-4-yl)phenyl]benzimidazol-1-yl]-N-(2,2,2-trifluoroethyl)acetamide] as the compound, how does the IC50 [1] read?
**A.** 10 to 100 nM

**Q.** And the IC50 [2]?
**A.** 100 to 1000 nM

**Q.** Which “DDR1 pIC50” value [1] does the source give for `Cc1cccc2c1n(-c1ccc(-c3cncc4c3cnn4C)cc1)c(=O)n2CC(=O)N1CCO[C@H](C(F)(F)F)C1` [Example 42, 4-methyl-3-[4-(1-methylpyrazolo[3,4-c]pyridin-4-yl)phenyl]-1-[2-oxo-2-[(2S)-2-(trifluoromethyl)morpholin-4-yl]ethyl]benzimidazol-2-one] here?
**A.** A (pIC50>8)

**Q.** What about the IC50 [2] of the same compound?
**A.** 10 to 100 nM

**Q.** What does the source list for `Cc1cccc2c1n(-c1ccc(-c3cncc4c3cnn4C)cc1)c(=O)n2CC(=O)N1CCC[C@H]1C(F)F` [Example 43, 1-[2-[(2S)-2-(difluoromethyl)pyrrolidin-1-yl]-2-oxo-ethyl]-4-methyl-3-[4-(1-methylpyrazolo[3,4-c]pyridin-4-yl)phenyl]benzimidazol-2-one]?
**A.** DDR1 pIC50 [1]: A (pIC50>8); IC50 [2]: 10 to 100 nM

**Q.** What does the source list for `Cc1cccc2c1n(-c1ccc(-c3cncc4[nH]ncc34)cc1)c(=O)n2CC(=O)NCC(F)(F)F` [Example 44, 2-[4-methyl-2-oxo-3-[4-(1H-pyrazolo[3,4-c]pyridin-4-yl)phenyl]benzimidazol-1-yl]-N-(2,2,2-trifluoroethyl)acetamide]?
**A.** IC50 [1]: < 10 nM; IC50 [2]: 10 to 100 nM
